Laboratory results from patent publication US20140023611A1 (priority 2010, published 2014).
pIC50: −log10 of the molar value.

Biological target: T1, rat NaP2b (SLC34A2) (Rattus norvegicus, UniProt Q9JJ09)
T1 construct: host or cells: HEK293
T1 sequence (Q9JJ09 1-695): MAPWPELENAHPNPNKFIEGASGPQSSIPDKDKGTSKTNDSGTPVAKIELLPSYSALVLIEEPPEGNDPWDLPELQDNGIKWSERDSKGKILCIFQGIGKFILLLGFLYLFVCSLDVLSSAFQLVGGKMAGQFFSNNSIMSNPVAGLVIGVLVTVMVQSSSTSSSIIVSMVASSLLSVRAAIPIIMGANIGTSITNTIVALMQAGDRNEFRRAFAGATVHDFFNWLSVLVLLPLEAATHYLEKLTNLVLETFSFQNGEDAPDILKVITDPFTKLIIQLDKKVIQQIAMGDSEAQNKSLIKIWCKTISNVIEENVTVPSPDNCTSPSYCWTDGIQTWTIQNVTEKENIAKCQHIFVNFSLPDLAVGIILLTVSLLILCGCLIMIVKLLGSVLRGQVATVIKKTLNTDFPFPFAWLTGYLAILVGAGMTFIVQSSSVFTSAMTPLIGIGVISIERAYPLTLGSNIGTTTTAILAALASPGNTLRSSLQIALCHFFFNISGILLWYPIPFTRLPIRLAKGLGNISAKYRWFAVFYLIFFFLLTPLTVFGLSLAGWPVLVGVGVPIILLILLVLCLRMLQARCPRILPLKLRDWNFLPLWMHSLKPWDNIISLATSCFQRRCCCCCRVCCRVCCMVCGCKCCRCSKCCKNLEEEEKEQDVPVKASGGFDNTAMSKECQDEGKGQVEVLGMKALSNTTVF
Assay: Inhibition of NaP2b-mediated Pi (33P) uptake in transfected HEK293 cells, rat NaP2b
Assay type: cell-based
Details: 33P Pi uptake, 0.1 mM phosphate, value given as pIC50 range
Protocol: HEK293 cells were obtained from the American Type Culture collection and propagated per their instructions. […] The sequence of the human protein was mutated to insert a threonine after residue 37, and to introduce a N39D mutation.
Cells were seeded into 96-well plates at 25,000 cells/well and cultured overnight. Lipofectamine 2000 (Invitrogen) was used to introduce the NaP2b cDNA, and the cells were allowed to approach confluence during a second overnight incubation. […] Each compound was tested at twelve concentrations ranging from 0.1 nM to 30 uM. Assays were run in duplicate.
Cells were lysed by addition of 20 μL 0.1% Tween 80 followed by 100 μL scintillation fluid, and counted using a TopCount (Perkin Elmer).
pIC50 (the negative log of the IC50) values of the test compounds were calculated using GraphPad Prism.

First: O=C(O)CNC(=O)CCSCc1cccc(C(=O)Nc2ccc(N3CCCCC3)cc2-c2cc(C(=O)NCc3cccc(C(F)(F)F)c3)ccn2)c1 [Example 4.18, 2-(3-((3-((4-(Piperidin-1-yl)-2-(4-((3-(trifluoromethyl)benzyl)carbamoyl)pyridin-2-yl)phenyl)carbamoyl)benzyl)thio)propanamido)acetic acid]
Second: O=C(O)CCCSCc1cccc(C(=O)Nc2ccc(N3CCCCC3)cc2-c2cc(C(=O)NCc3cccc(C(F)(F)F)c3)ccn2)c1 [Example 8.5]
The pIC50 of the first is lower: 4.50 to 5.00 for the first, 5.10 to 6.00 for the second.

`COCCN(C)CCN(C)C(=O)c1cccc(C(=O)Nc2ccc(N3CCCCC3)cc2-c2cc(C(=O)NCc3cccc(C(F)(F)F)c3)ccn2)c1` [Example 4.20.2, N1-(2-((2-Methoxyethyl)(methyl)amino)ethyl)-N1-methyl-N3-(4-(piperidin-1-yl)-2-(4-((3-(trifluoromethyl)benzyl)carbamoyl)pyridin-2-yl)phenyl)isophthalamide] and `CN(CCO)CCN(C)C(=O)c1cccc(C(=O)Nc2ccc(N3CCCCC3)cc2-c2cc(C(=O)NCc3cccc(C(F)(F)F)c3)ccn2)c1` [Example 4.21, N1-(2-((2-Hydroxyethyl)(methyl)amino)ethyl)-N1-methyl-N3-(4-(piperidin-1-yl)-2-(4-((3-(trifluoromethyl)benzyl)carbamoyl)pyridin-2-yl)phenyl)isophthalamide] fall in the same range of pIC50: 5.10 to 6.00 for the first, 5.10 to 6.00 for the second.

`CN(CCNC(=O)OC(C)(C)C)C(=O)c1cccc(C(=O)Nc2ccc(N3CCCCC3)cc2-c2cc(C(=O)NCc3cccc(C(F)(F)F)c3)ccn2)c1` [Example 4.22] and `CC(C)(C)OC(=O)NC(CSCc1cccc(C(=O)Nc2ccc(N3CCCCC3)cc2-c2cc(C(=O)NCc3cccc(C(F)(F)F)c3)ccn2)c1)C(=O)O` (stereo not shown) [Example 8.10] fall in the same range of pIC50: 4.50 to 5.00 for the first, 4.50 to 5.00 for the second.

First: O=C(NCc1cccc(C(F)(F)F)c1)c1ccnc(-c2cc(N3CCCCC3)ccc2NC(=O)c2cccc(C(=O)N3CCC(N4CCOCC4)CC3)c2)c1 [Example 4.23]
Second: O=C(NCc1cccc(C(F)(F)F)c1)c1ccnc(-c2cc(N3CCCCC3)ccc2NC(=O)c2cccc(C(=O)N3CCC(CO)CC3)c2)c1 [Example 4.30]
The pIC50 of the first is lower: 4.50 to 5.00 for the first, 5.10 to 6.00 for the second. The second is the more potent here.

`CN(Cc1ncc[nH]1)C(=O)c1cccc(C(=O)Nc2ccc(N3CCCCC3)cc2-c2cc(C(=O)NCc3cccc(C(F)(F)F)c3)ccn2)c1` [Example 4.24] and `CN(Cc1nccn1C)C(=O)c1cccc(C(=O)Nc2ccc(N3CCCCC3)cc2-c2cc(C(=O)NCc3cccc(C(F)(F)F)c3)ccn2)c1` [Example 4.25] fall in the same range of pIC50: 5.10 to 6.00 for the first, 5.10 to 6.00 for the second.

`CN(Cc1cccnc1)C(=O)c1cccc(C(=O)Nc2ccc(N3CCCCC3)cc2-c2cc(C(=O)NCc3cccc(C(F)(F)F)c3)ccn2)c1` [Example 4.27] and `CN(Cc1cccc(C(=O)O)c1)C(=O)c1cccc(C(=O)Nc2ccc(N3CCCCC3)cc2-c2cc(C(=O)NCc3cccc(C(F)(F)F)c3)ccn2)c1` [Example 4.32, 3-((N-Methyl-3-(4-(piperidin-1-yl)-2-(4-(3-(trifluoromethyl)benzylcarbamoyl)pyridin-2-yl)phenylcarbamoyl)benzamido)methyl)benzoic acid] fall in the same range of pIC50: 5.10 to 6.00 for the first, 5.10 to 6.00 for the second.

`CN(CCn1ccnc1)C(=O)c1cccc(C(=O)Nc2ccc(N3CCCCC3)cc2-c2cc(C(=O)NCc3cccc(C(F)(F)F)c3)ccn2)c1` [Example 4.28] and `O=C(NCc1cccc(C(F)(F)F)c1)c1ccnc(-c2cc(N3CCCCC3)ccc2NC(=O)c2cccc(CSCCO)c2)c1` [Example 8.2] fall in the same range of pIC50: 5.10 to 6.00 for the first, 5.10 to 6.00 for the second.

Compared with `O=C(NCc1cccc(C(F)(F)F)c1)c1ccnc(-c2cc(N3CCCCC3)ccc2NC(=O)c2cccc(C(=O)N3CCC(CCO)CC3)c2)c1` [Example 4.29], `O=C(O)CC1CCN(C(=O)c2cccc(C(=O)Nc3ccc(N4CCCCC4)cc3-c3cc(C(=O)NCc4cccc(C(F)(F)F)c4)ccn3)c2)CC1` [Example 4.31, 2-(1-(3-(4-(Piperidin-1-yl)-2-(4-(3-(trifluoromethyl)benzylcarbamoyl)pyridin-2-yl)phenylcarbamoyl)benzoyl)piperidin-4-yl)acetic acid] is lower in pIC50: 5.10 to 6.00 for the first, 4.50 to 5.00 for the second.

Compared with `O=C(O)CCSCc1cccc(C(=O)Nc2ccc(N3CCCCC3)cc2-c2cc(C(=O)CCc3ccccc3)ccn2)c1` [Example 5.1, 3-((3-((2-(4-(3-Phenylpropanoyl)pyridin-2-yl)-4-(piperidin-1-yl)phenyl)carbamoyl)benzyl)thio)propanoic acid], `O=C(O)CCSCc1cccc(C(=O)Nc2ccc(N3CCCCC3)cc2-c2cc(C(=O)c3cccc(C(F)(F)F)c3)ccn2)c1` [Example 5.2, 3-((3-((4-(piperidin-1-yl)-2-(4-(3-(trifluoromethyl)benzoyl)pyridin-2-yl)phenyl)carbamoyl)benzyl)thio)propanoic acid] is lower in pIC50: 5.10 to 6.00 for the first, 4.50 to 5.00 for the second. The first is the more potent here.

`O=C(O)CCSCc1cccc(C(=O)Nc2ccc(N3CCCCC3)cc2-c2cc(C(O)c3cccc(C(F)(F)F)c3)ccn2)c1` (stereo not shown) [Example 6.2, 3-((3-((2-(4-(Hydroxy(3-(trifluoromethyl)phenyl)methyl)pyridin-2-yl)-4-(piperidin-1-yl)phenyl)carbamoyl)benzyl)thio)propanoic acid] and `O=C(O)CCSCc1cccc(C(=O)Nc2ccc(N3CCCCC3)cc2-c2cc(CNCc3cccc(C(F)(F)F)c3)ccn2)c1` [Example 7] fall in the same range of pIC50: 4.50 to 5.00 for the first, 4.50 to 5.00 for the second.

First: O=C(NCc1cccc(C(F)(F)F)c1)c1ccnc(-c2cc(N3CCCCC3)ccc2NC(=O)c2cccc(CSCCCCO)c2)c1 [Example 8.4]
Second: O=C(NCc1cccc(C(F)(F)F)c1)c1ccnc(-c2cc(N3CCCCC3)ccc2NC(=O)c2cccc(CSCCS(=O)(=O)O)c2)c1 [Example 8.13]
The pIC50 of the first is higher: 5.10 to 6.00 for the first, 4.50 to 5.00 for the second. The first is the more potent here.

`O=C(O)CCOCCOCCOCCOCCSCc1cccc(C(=O)Nc2ccc(N3CCCCC3)cc2-c2cc(C(=O)NCc3cccc(C(F)(F)F)c3)ccn2)c1` [Example 8.7] and `O=C(O)CCOCCOCCOCCOCCOCCOCCOCCOCCSCc1cccc(C(=O)Nc2ccc(N3CCCCC3)cc2-c2cc(C(=O)NCc3cccc(C(F)(F)F)c3)ccn2)c1` [Example 8.22] fall in the same range of pIC50: 5.10 to 6.00 for the first, 5.10 to 6.00 for the second.

Compared with `O=C(O)CCc1ccc(SCc2cccc(C(=O)Nc3ccc(N4CCCCC4)cc3-c3cc(C(=O)NCc4cccc(C(F)(F)F)c4)ccn3)c2)cc1` [Example 8.8], `O=C(O)CCCc1ccc(SCc2cccc(C(=O)Nc3ccc(N4CCCCC4)cc3-c3cc(C(=O)NCc4cccc(C(F)(F)F)c4)ccn3)c2)cc1` [Example 8.9] is lower in pIC50: greater than 6.00 for the first, 5.10 to 6.00 for the second.

`CC(=O)NC(C(=O)O)C(C)(C)SCc1cccc(C(=O)Nc2ccc(N3CCCCC3)cc2-c2cc(C(=O)NCc3cccc(C(F)(F)F)c3)ccn2)c1` (stereo not shown) [Example 8.11] and `CC(C)C(=O)NC(CSCc1cccc(C(=O)Nc2ccc(N3CCCCC3)cc2-c2cc(C(=O)NCc3cccc(C(F)(F)F)c3)ccn2)c1)C(=O)O` (stereo not shown) [Example 8.12] fall in the same range of pIC50: 4.50 to 5.00 for the first, 4.50 to 5.00 for the second.

`O=C(NCc1cccc(C(F)(F)F)c1)c1ccnc(-c2cc(N3CCCCC3)ccc2NC(=O)c2cccc(CSc3ncc(C(=O)O)c(O)n3)c2)c1` [Example 8.14] and `O=C(O)c1ccc(SCc2cccc(C(=O)Nc3ccc(N4CCCCC4)cc3-c3cc(C(=O)NCc4cccc(C(F)(F)F)c4)ccn3)c2)nc1` [Example 8.15] fall in the same range of pIC50: 5.10 to 6.00 for the first, 5.10 to 6.00 for the second.

First: Cc1nc(SCc2cccc(C(=O)Nc3ccc(N4CCCCC4)cc3-c3cc(C(=O)NCc4cccc(C(F)(F)F)c4)ccn3)c2)sc1CC(=O)O [Example 8.16]
Second: O=C(O)Cc1ccc(SCc2cccc(C(=O)Nc3ccc(N4CCCCC4)cc3-c3cc(C(=O)NCc4cccc(C(F)(F)F)c4)ccn3)c2)cc1 [Example 8.17]
The pIC50 of the first is lower: 5.10 to 6.00 for the first, greater than 6.00 for the second. The second is the more potent here.

`O=C(O)CCCc1cccc(SCc2cccc(C(=O)Nc3ccc(N4CCCCC4)cc3-c3cc(C(=O)NCc4cccc(C(F)(F)F)c4)ccn3)c2)c1` [Example 8.19] and `CC(C)(Cc1cccc(SCc2cccc(C(=O)Nc3ccc(N4CCCCC4)cc3-c3cc(C(=O)NCc4cccc(C(F)(F)F)c4)ccn3)c2)c1)C(=O)O` [Example 8.20] fall in the same range of pIC50: 5.10 to 6.00 for the first, 5.10 to 6.00 for the second.

`O=C(O)c1ccc(SCc2cccc(C(=O)Nc3ccc(N4CCCCC4)cc3-c3cc(C(=O)NCc4cccc(C(F)(F)F)c4)ccn3)c2)cc1` [Example 8.23] and `O=C(NCc1cccc(C(F)(F)F)c1)c1ccnc(-c2cc(N3CCCCC3)ccc2NC(=O)c2cccc(Cn3ccc4c(C(=O)O)cccc43)c2)c1` [Example 9.1, 1-(3-((4-(Piperidin-1-yl)-2-(4-((3-(trifluoromethyl)benzyl)carbamoyl)pyridin-2-yl)phenyl)carbamoyl)benzyl)-1H-indole-4-carboxylic acid] fall in the same range of pIC50: 5.10 to 6.00 for the first, 5.10 to 6.00 for the second.

Work on `O=C(NCc1cccc(C(F)(F)F)c1)c1ccnc(-c2cc(N3CCCCC3)ccc2NC(=O)c2cccc(CN3CCC(CO)CC3)c2)c1` [Example 8.27] yielded a pIC50 of 4.50 to 5.00.
